Source: patent publication US12679824B2 (Hoffmann-La Roche Inc., priority 2020, dated 2026)

Test system: Acinetobacter baumannii ATCC17961
Assay: 90% Growth Inhibitory Concentration (IC90) determination, antimicrobial susceptibility testing
Format: cell-based
Conditions: Acinetobacter baumannii, ATCC17961, 16 h, Acinetobacter baumannii ATCC17961; Iso-Sensitest broth; growth by optical density at 600 nm over 16h; concentration inhibiting 90% of the growth; read-out: ATCC 17961 IC90
Procedure: Antimicrobial Susceptibility Testing:
90% Growth Inhibitory Concentration (IC90) Determination
The in vitro antimicrobial activity of the compounds was determined according to the following procedure:
The assay used a 10-points Iso-Sensitest broth medium to measure quantitatively the in vitro activity of the compounds against Acinetobacter baumannii ATCC17961.
Stock compounds in DMSO were serially twofold diluted (e.g. range from 50 to 0.097 μM final concentration) in 384 wells microtiter plates and inoculated with 49 μl the bacterial suspension in Iso-Sensitest medium to have a final cell concentration of ~5×10^(5) CFU/ml in a final volume/well of 50 ul/well. Microtiter plates were incubated at 35±2° C.
Bacterial cell growth was determined with the measurement of optical density at λ=600 nm each 20 minutes over a time course of 16h. Growth inhibition was calculated during the logarithmic growth of the bacterial cells with determination of the concentration inhibiting 50% (IC50) and 90% (IC90) of the growth.
Table 1 provides the 90% growth inhibitory concentrations (IC90) in micromoles per liter of the compounds of present invention obtained against the strain Acinetobacter baumannii ATCC17961.

SMILES	IC90 [nM]
Cc1[nH]ncc1-n1cc(-c2cnc(C(=O)Nc3ccc(C(=O)N4CCN(C(=O)C5CCNCC5)CC4)c(Cl)c3)n2C)c(C(F)(F)F)n1 [Example E5, N-[3-chloro-4-[4-(piperidine-4-carbonyl)piperazine-1-carbonyl]phenyl]-1-methyl-5-[1-(5-methyl-1H-pyrazol-4-yl)-3-(trifluoromethyl)pyrazol-4-yl]imidazole-2-carboxamide]	1400
COc1ccnc(-n2cc(-c3cnc(C(=O)Nc4ccc(C(=O)N5CCN(C(=O)C6CCNCC6)CC5)c(Cl)c4)n3C)c(C(F)(F)F)n2)n1 [Example C5, N-[3-chloro-4-[4-(piperidine-4-carbonyl)piperazine-1-carbonyl]phenyl]-5-[1-(4-methoxypyrimidin-2-yl)-3-(trifluoromethyl)pyrazol-4-yl]-1-methyl-imidazole-2-carboxamide]	930
COCCn1cnc(-n2cc(-c3cnc(C(=O)Nc4ccc(C(=O)N5CCN(C(=O)C6CCNCC6)CC5)c(Cl)c4)n3C)c(C(F)(F)F)n2)c1 [Example E3, N-[3-chloro-4-[4-(piperidine-4-carbonyl)piperazine-1-carbonyl]phenyl]-5-[1-[1-(2-methoxyethyl)imidazol-4-yl]-3-(trifluoromethyl)pyrazol-4-yl]-1-methyl-imidazole-2-carboxamide]	500
CN(C(=O)c1ccc(NC(=O)c2ncc(-c3cn(-c4ccc(N)cn4)nc3C(F)(F)F)n2C)cc1Cl)C1CCNCC1 [Example Z13, 5-[1-(5-amino-2-pyridyl)-3-(trifluoromethyl)pyrazol-4-yl]-N-[3-chloro-4-[methyl(4-piperidyl)carbamoyl]phenyl]-1-methyl-imidazole-2-carboxamide]	420
Cn1c(-c2cn(-c3ccc(N)cn3)nc2C(F)(F)F)cnc1C(=O)Nc1ccc(C(=O)NCC2CCN(C(=O)[C@@H]3C[C@@H](O)CN3)CC2)c(Cl)c1 [Example Z34, 5-[1-(5-amino-2-pyridyl)-3-(trifluoromethyl)pyrazol-4-yl]-N-[3-chloro-4-[[1-[(2S,4R)-4-hydroxyprolyl]-4-piperidyl]methylcarbamoyl]phenyl]-1-methyl-imidazole-2-carboxamide]	410
COCC1CN(C(=O)c2ccc(NC(=O)c3ncc(-c4cn(-c5ccc(N)cn5)nc4C(F)(F)F)n3C)cc2Cl)CCN1 (stereo not shown) [Example Z69, 5-[1-(5-amino-2-pyridyl)-3-(trifluoromethyl)pyrazol-4-yl]-N-[3-chloro-4-[3-(methoxymethyl)piperazine-1-carbonyl]phenyl]-1-methyl-imidazole-2-carboxamide]	1310
Cc1cc(-n2cc(-c3cnc(C(=O)Nc4ccc(C(=O)N5CCN(C(=O)C6CCNCC6)CC5)c(Cl)c4)n3C)c(C(F)(F)F)n2)ncc1N [Example Z82, 5-[1-(5-amino-4-methyl-2-pyridyl)-3-(trifluoromethyl)pyrazol-4-yl]-N-[3-chloro-4-[4-(piperidine-4-carbonyl)piperazine-1-carbonyl]phenyl]-1-methyl-imidazole-2-carboxamide]	340
CN(C(=O)c1ccc(NC(=O)c2ncc(-c3cn(-c4ccc(N)cn4)nc3C(F)(F)F)n2C)cc1Cl)C1CCN(C(=O)[C@@H]2C[C@@H](O)CN2)CC1 [Example Z35, 5-[1-(5-amino-2-pyridyl)-3-(trifluoromethyl)pyrazol-4-yl]-N-[3-chloro-4-[[1-[(2S,4R)-4-hydroxyprolyl]-4-piperidyl]-methyl-carbamoyl]phenyl]-1-methyl-imidazole-2-carboxamide]	270
Cn1c(-c2cn(-c3nccc(OCCN)n3)nc2C(F)(F)F)cnc1C(=O)Nc1ccc(C(=O)N2CCN(C(=O)C3CCNCC3)CC2)c(Cl)c1 [Example A14, 5-[1-[4-(2-aminoethoxy)pyrimidin-2-yl]-3-(trifluoromethyl)pyrazol-4-yl]-N-[3-chloro-4-[4-(piperidine-4-carbonyl)piperazine-1-carbonyl]phenyl]-1-methyl-imidazole-2-carboxamide]	2200
Cn1c(-c2cn(-c3ccc(N)cn3)nc2C(F)(F)F)cnc1C(=O)Nc1ccc(C(=O)NCC2CCN(C(=O)C3CCNCC3)CC2)c(Cl)c1 [Example C7, 5-[1-(5-amino-2-pyridyl)-3-(trifluoromethyl)pyrazol-4-yl]-N-[3-chloro-4-[[1-(piperidine-4-carbonyl)-4-piperidyl]methylcarbamoyl]phenyl]-1-methyl-imidazole-2-carboxamide]	660
CN1CCC(C(=O)N2CCN(C(=O)c3ccc(NC(=O)c4ncc(-c5cn(-c6ccc(N)cn6)nc5C(F)F)n4C)cc3Cl)CC2)CC1 [Example C9, 5-[1-(5-amino-2-pyridyl)-3-(difluoromethyl)pyrazol-4-yl]-N-[3-chloro-4-[4-(1-methylpiperidine-4-carbonyl)piperazine-1-carbonyl]phenyl]-1-methyl-imidazole-2-carboxamide]	420
CNc1ccc(-n2cc(-c3cnc(C(=O)Nc4ccc(C(=O)N5CCN(C(=O)[C@H]6NCC[C@@H]6O)CC5)c(Cl)c4)n3C)c(C(F)(F)F)n2)nc1 [Example D4, N-[3-chloro-4-[4-[(2S,3S)-3-hydroxypyrrolidine-2-carbonyl]piperazine-1-carbonyl]phenyl]-1-methyl-5-[1-[5-(methylamino)-2-pyridyl]-3-(trifluoromethyl)pyrazol-4-yl]imidazole-2-carboxamide]	520
C[C@H]1CNCCN1C(=O)c1ccc(NC(=O)c2ncc(-c3cn(-c4ccc(N)cn4)nc3C(F)(F)F)n2C)cc1Cl [Example Z56, 5-[1-(5-amino-2-pyridyl)-3-(trifluoromethyl)pyrazol-4-yl]-N-[3-chloro-4-[(2S)-2-methylpiperazine-1-carbonyl]phenyl]-1-methyl-imidazole-2-carboxamide]	400
Cn1c(-c2cn(-c3ccc(N)cn3)nc2C(F)(F)F)cnc1C(=O)Nc1ccc(C(=O)NCCN2CCNCC2)c(Cl)c1 [Example Z65, 5-[1-(5-amino-2-pyridyl)-3-(trifluoromethyl)pyrazol-4-yl]-N-[3-chloro-4-(2-piperazinoethylcarbamoyl)phenyl]-1-methyl-imidazole-2-carboxamide]	760
Cn1c(-c2cn(-c3ccc(N)cn3)nc2C(F)(F)F)cnc1C(=O)Nc1ccc(C(=O)N2CC[C@@H](CNC(=O)[C@@H]3C[C@@H](O)CN3)C2)c(Cl)c1 [Example Z39, 5-[1-(5-amino-2-pyridyl)-3-(trifluoromethyl)pyrazol-4-yl]-N-[3-chloro-4-[(3S)-3-[[[(2S,4R)-4-hydroxyprolyl]amino]methyl]pyrrolidine-1-carbonyl]phenyl]-1-methyl-imidazole-2-carboxamide]	580

Same assay, conditions: Acinetobacter baumannii, ATCC17961, 16 h, read-out: ATCC 17961 IC90

SMILES	IC90 [nM]
COCCn1cc(-n2cc(-c3cnc(C(=O)Nc4ccc(C(=O)N5CCN(C(=O)C6CCNCC6)CC5)c(Cl)c4)n3C)c(C(F)(F)F)n2)cn1 [Example E1, N-[3-chloro-4-[4-(piperidine-4-carbonyl)piperazine-1-carbonyl]phenyl]-5-[1-[1-(2-methoxyethyl)pyrazol-4-yl]-3-(trifluoromethyl)pyrazol-4-yl]-1-methyl-imidazole-2-carboxamide]	880
Cn1c(-c2cn(-c3ncccn3)nc2C(F)(F)F)cnc1C(=O)Nc1ccc(C(=O)N2CCN(C(=O)C3CCN(CC4CNC4)CC3)CC2)c(Cl)c1 [Example G1, N-[4-[4-[1-(Azetidin-3-ylmethyl)piperidine-4-carbonyl]piperazine-1-carbonyl]-3-chloro-phenyl]-1-methyl-5-[1-pyrimidin-2-yl-3-(trifluoromethyl)pyrazol-4-yl]imidazole-2-carboxamide]	390
CN(C)c1cnc(-n2cc(-c3cnc(C(=O)Nc4ccc(C(=O)N5CCN(C(=O)C6CCNCC6)CC5)c(Cl)c4)n3C)c(C(F)(F)F)n2)nc1 [Example B1, N-[3-Chloro-4-[4-(piperidine-4-carbonyl)piperazine-1-carbonyl]phenyl]-5-[1-[5-(dimethylamino)pyrimidin-2-yl]-3-(trifluoromethyl)pyrazol-4-yl]-1-methyl-imidazole-2-carboxamide]	230
Cn1c(-c2cn(-c3ccc(N)cn3)nc2C(F)(F)F)cnc1C(=O)Nc1ccc(C(=O)N2CCC(CN3CCNCC3=O)CC2)c(Cl)c1 [Example I1, 5-[1-(5-Amino-2-pyridyl)-3-(trifluoromethyl)pyrazol-4-yl]-N-[3-chloro-4-[4-[(2-oxopiperazin-1-yl)methyl]piperidine-1-carbonyl]phenyl]-1-methyl-imidazole-2-carboxamide]	1500
Cn1c(-c2cn(-c3ccc(N)cn3)nc2C(F)(F)F)cnc1C(=O)Nc1ccc(C(=O)NC23CC(NC(=O)[C@@H]4C[C@@H](O)CN4)(C2)C3)c(Cl)c1 [Example Z47, 5-[1-(5-amino-2-pyridyl)-3-(trifluoromethyl)pyrazol-4-yl]-N-[3-chloro-4-[[3-[[(2S,4R)-4-hydroxyprolyl]amino]-1-bicyclo[1.1.1]pentanyl]carbamoyl]phenyl]-1-methyl-imidazole-2-carboxamide]	580
Cn1c(-c2cn(-c3ccc(N)cn3)nc2C(F)(F)F)cnc1C(=O)Nc1ccc(C(=O)N2CCN(C(=O)[C@@H]3CC(O)CCN3)CC2)c(Cl)c1 (stereo partly shown) [Example J1]	580
Cn1c(-c2cn(-c3ccc(N)cn3)nc2C(F)(F)F)cnc1C(=O)Nc1ccc(C(=O)NCCN)c(Cl)c1 [Example Z17, N-[4-(2-aminoethylcarbamoyl)-3-chloro-phenyl]-5-[1-(5-amino-2-pyridyl)-3-(trifluoromethyl)pyrazol-4-yl]-1-methyl-imidazole-2-carboxamide]	990
